Laboratory results: ChEMBL document CHEMBL1129290 (J Med Chem, 1996)

Key:
Rattus norvegicus [1] = species: Rattus norvegicus; assay: animal or person; type: functional
Rattus norvegicus [2] = species: Rattus norvegicus; assay: animal or person; conditions: read-out: Inhibition
Rattus norvegicus [3] = species: Rattus norvegicus; assay: animal or person; conditions: read-out: Inhibition; remark: listed apart in the source
[4] = target: Cyclooxygenase (Rattus norvegicus) (UniProt P35355+Q63921); conditions: at 30 mg/kg
Rattus norvegicus [5] = species: Rattus norvegicus; assay: animal or person; type: functional; remark: listed apart in the source
Rattus norvegicus [6] = species: Rattus norvegicus; assay: animal or person; conditions: read-out: Inhibition; remark: listed apart in the source
[7] = target: Prostaglandin G/H synthase 1 (Homo sapiens, UniProt P23219)
Rattus norvegicus [8] = species: Rattus norvegicus; assay: animal or person; conditions: read-out: Inhibition; remark: listed apart in the source
in vivo [9] = conditions: rat
in vivo [10] = conditions: rat, po, 10 mg/kg

Chain of Prostaglandin G/H synthase 1 (P23219 whole entry): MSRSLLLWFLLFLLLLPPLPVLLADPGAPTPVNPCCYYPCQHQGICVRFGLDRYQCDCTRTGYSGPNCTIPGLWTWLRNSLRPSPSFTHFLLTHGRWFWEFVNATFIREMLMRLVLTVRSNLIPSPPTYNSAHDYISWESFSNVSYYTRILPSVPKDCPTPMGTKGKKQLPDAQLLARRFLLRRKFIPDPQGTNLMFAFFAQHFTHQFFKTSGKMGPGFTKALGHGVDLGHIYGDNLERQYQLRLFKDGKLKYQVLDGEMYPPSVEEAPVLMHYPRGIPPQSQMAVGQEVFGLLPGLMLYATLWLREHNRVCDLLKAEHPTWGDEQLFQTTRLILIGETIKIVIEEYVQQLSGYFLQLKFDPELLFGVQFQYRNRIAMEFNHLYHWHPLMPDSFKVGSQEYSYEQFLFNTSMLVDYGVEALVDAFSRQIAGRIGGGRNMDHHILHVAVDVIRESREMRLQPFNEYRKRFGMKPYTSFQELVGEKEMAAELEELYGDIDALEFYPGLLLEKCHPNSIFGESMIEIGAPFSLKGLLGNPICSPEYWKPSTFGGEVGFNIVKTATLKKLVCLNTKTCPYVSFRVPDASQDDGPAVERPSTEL

Row | SMILES | ED50 (Rattus norvegicus [1]) | inhibition in vivo at 30 mg/kg (Rattus norvegicus [2]) | inhibition [4] | also measured
1 | COc1ccc(C2=C(c3ccc(S(C)(=O)=O)cc3)CC3(CC3)C2)cc1Cl | 27.7 mg/kg | 45% | 42% | inhibition in vivo at 2 mg/kg (Rattus norvegicus [3]): 12%
2 | NS(=O)(=O)c1ccc(C2=C(c3ccc(F)cc3)CC3(CC3)C2)cc1 | 17.6 mg/kg | – | 60% | ED50 (Rattus norvegicus [5]): 0.24 mg/kg; inhibition in vivo at 1 mg/kg (Rattus norvegicus [6]): 85%
3 | COc1ccc(C2=CC3(C=C2c2ccc(S(C)(=O)=O)cc2)CC3)cc1Cl | – | – | – | IC50 [7]: 3.38 µM
4 | CS(=O)(=O)c1ccc(C2=CC3(C=C2c2ccc(F)cc2)CC3)cc1 | – | – | – | IC50 [7]: 1.32 µM
5 | NS(=O)(=O)c1ccc(C2=C(c3ccc(Cl)c(Cl)c3)CC3(CC3)C2)cc1 | 31.3 mg/kg | – | – | inhibition in vivo at 0.3 mg/kg (Rattus norvegicus [8]): 72%; IC50 [7]: 0.38 µM
6 | NS(=O)(=O)c1ccc(C2=C(c3ccc(F)c(F)c3)CC3(CC3)C2)cc1 | – | – | 18% | –
7 | COc1ccc(C2=C(c3ccc(S(C)(=O)=O)cc3)CC3(CC3)C2)cc1Br | – | – | 21% | –
8 | NS(=O)(=O)c1ccc(C2=C(c3ccc(C(F)(F)F)cc3)CC3(CC3)C2)cc1 | 46.7 mg/kg | 40% | 46% | ED50 (Rattus norvegicus [5]): 0.04 mg/kg; inhibition in vivo at 2 mg/kg (Rattus norvegicus [3]): 92%
9 | CS(=O)(=O)c1ccc(C2=C(c3ccc(C(F)(F)F)cc3)CC3(CC3)C2)cc1 | – | – | 35% | –
10 | CS(=O)(=O)c1ccc(C2=C(c3ccc(F)cc3)CCC2)cc1 [SC-57666] | – | – | – | half-life (in vivo [9]): 1.6 h; bioavailability (in vivo [10]): 11%
11 | COc1ccc(C2=C(c3ccc(S(N)(=O)=O)cc3)CC3(CC3)C2)cc1F | 40.8 mg/kg | 38% | 40% | ED50 (Rattus norvegicus [5]): 0.08 mg/kg; inhibition in vivo at 1 mg/kg (Rattus norvegicus [6]): 89%
12 | CS(=O)(=O)c1ccc(C2=C(c3ccc(F)c(F)c3)CC3(CC3)C2)cc1 | – | – | 23% | –
13 | CS(=O)(=O)c1ccc(C2=C(c3ccc(F)c(Cl)c3)CC3(CC3)C2)cc1 | – | – | 38% | –
14 | COc1ccc(C2=C(c3ccc(S(C)(=O)=O)cc3)CC3(CC3)C2)cc1 | – | – | 0% | –
15 | COc1ccc(C2=C(c3ccc(S(C)(=O)=O)cc3)CC3(CC3)C2)cc1F | – | 19% | 30% | inhibition in vivo at 2 mg/kg (Rattus norvegicus [3]): 63%
16 | COc1ccc(C2=C(c3ccc(S(N)(=O)=O)cc3)CC3(CC3)C2)cc1Cl | 35.4 mg/kg | 47% | 47% | ED50 (Rattus norvegicus [5]): 0.21 mg/kg; inhibition in vivo at 1 mg/kg (Rattus norvegicus [6]): 79%
17 | CS(=O)(=O)c1ccc(C2=C(c3ccc(F)cc3)CC3(CC3)C2)cc1 | – | 31% | 49% | half-life (in vivo [9]): 2.3 h; ED50 (Rattus norvegicus [5]): 0.3 mg/kg; bioavailability (in vivo [10]): 58%; inhibition in vivo at 1 mg/kg (Rattus norvegicus [6]): 68%
18 | CS(=O)(=O)c1ccc(C2=C(c3ccc(F)cc3)CC3(CCC3)C2)cc1 | – | – | 23% | –
19 | CS(=O)(=O)c1ccc(C2=C(c3ccc(Cl)c(Cl)c3)CC3(CC3)C2)cc1 | – | – | 23% | –
20 | CS(=O)(=O)c1ccc(C2=C(c3ccc(OC(F)(F)F)cc3)CC3(CC3)C2)cc1 | – | – | 20% | –
21 | COc1c(Cl)cc(C2=C(c3ccc(S(C)(=O)=O)cc3)CC3(CC3)C2)cc1Cl | 32.7 mg/kg | 50% | 44% | ED50 (Rattus norvegicus [5]): 0.52 mg/kg; inhibition in vivo at 1 mg/kg (Rattus norvegicus [6]): 57%
